{"source": "patent US8030358B2", "about": "“Methods and pharmaceutical compositions for decorporation of radioactive compounds” (priority 2007, dated 2011)", "key": {"[1]": {"test": "Bioavailability study (oral C2E5 vs intravenous DTPA)", "assay_type": "in vivo, rat", "protocol": "A bioavailability study was conducted in which five rats were intravenously administered 5 mg of DTPA and another 5 rats were orally administered an equivalent […] dose (approximately 7 mg) of C2E5 in a 10% ethanol solution. Blood samples were obtained at regular intervals from an in-dwelling catheter that had been surgically implanted prior to the administration of the doses."}, "[2]": {"test": "Small Animal Decorporation Efficacy Study", "assay_type": "in vivo", "settings": "rats; oral C2E5 compared with IV administration of equivalent doses of DTPA"}}, "data": [{"smiles": "CCOC(=O)CN(CCN(CC(=O)OCC)CC(=O)OCC)CCN(CC(=O)OCC)CC(=O)OCC", "note": "[C2E5, DTPA Pentaethyl Ester]", "values": [{"measurement": "bioavailability", "setting": "[1]; rat model, oral, approximately 7 mg C2E5 in a 10% ethanol solution, compared with 5 mg DTPA intravenously", "result": "~100", "unit": "%"}, {"measurement": "C2E5 detected in the plasma", "setting": "[1]; rat, after oral C2E5 in a 10% ethanol solution", "result": "no C2E5 can be detected in the plasma"}, {"measurement": "conversion to DTPA after absorption from the gastrointestinal tract", "setting": "[1]; rat, oral C2E5", "result": "quantitatively and rapidly converted to DTPA"}, {"measurement": "blood concentration profile compared to IV DTPA", "setting": "[1]; rat, oral C2E5 vs 5 mg DTPA intravenously", "result": "lower blood levels and a longer duration compared to IV DTPA"}, {"measurement": "decorporation of ^241Am", "setting": "[2]", "result": "compared favorably"}]}]}
